Literature values in patent publication US20040029892A1, “Compositions and dosage forms for application in the oral cavity in the treatment of mykoses” (priority 2003, published 2004).

Details: almost insoluble

- solubility in water: less than 1 μg/ml
Structure (SMILES): CCC(C)n1ncn(-c2ccc(N3CCN(c4ccc(OCC5COC(Cn6cncn6)(c6ccc(Cl)cc6Cl)O5)cc4)CC3)cc2)c1=O (racemic) [itraconazole, (±)-cis-4-[4-[4-[4-[[2-(2,4-dichlorophenyl)-2(1H-1,2,4-triazol-1-yl-methyl)-1,3-dioxolan-4-yl]methoxy]phenyl]-1piperazinyl]phenyl]-2,4-dihydro-2-(1-methylpropyl)-3H-1,2,4-triazol-3-one]
